Results as given in patent US7754868B2, “Nucleic acid encoding two-component sensing and regulatory proteins, antimicrobial proteins and uses therefor” (North Carolina State University, priority 2004, dated 2010).
Entries after “also recorded” stand apart in the source; their conditions may differ.

Legend:
[1] = test system: L. acidophilus NCFM LBA1430 HPK mutant; assay: Growth curves with 0.3% of individual bile salts; assay type: cell-based, Lactobacillus acidophilus; conditions: 0.3% bile salt
Protocol: Growth curve experiments were also performed using 0.3% of individual bile salts: taurocholic acid, taurodeoxycholic acid, taurochenodeoxycholic acid, glycocholic acid, glycodeoxycholic acid.

[2] = test system: L. acidophilus HPK mutant (NCK1686); conditions: log-phase cells
Protocol: (§1) Log phase cells at an A600 of 0.25-0.3 (pH>5.8) from a 2% inoculum in MRS broth were centrifuged and resuspended in the same volume of NMS, or MRS containing 15 or 20% (v/v) ethanol. CFU/ml were determined at 30 minutes intervals by serial dilutions in 10% MRS and enumeration on MRS agar as described above.

[3] = test system: L. acidophilus control NCK1398 (NCFM::lacL); conditions: 20% ethanol, after 90 min, log-phase cells
Protocol: as §1

In the case of `C[C@H](CCC(=O)NCCS(=O)(=O)O)[C@H]1CC[C@H]2[C@@H]3CC[C@@H]4C[C@H](O)CC[C@]4(C)[C@H]3C[C@H](O)[C@]12C` [Sodium taurodeoxycholate], the “effect on growth of the HPK mutant compared to wild type” value [1] is reported as “the only salt that affected the growth of the HPK mutant; also recorded: more inhibitory effect on the growth of the HPK mutant than other salts tested”.

In the case of `CCO` [ethanol], the “survival, HPK mutant versus control” value ([2]; 15% (v/v) ethanol) is reported as “No differences were observed”, the reduction in survival ([2]; 20% ethanol, after 90 min) is reported as 4 log and the reduction in survival [3] is reported as 1 log.
